In general, EC50 refers to the concentration needed to bring the measured effect to its halfway point.

Bounds are passed on as bounds.

Consider 6 compounds from ChEMBL document CHEMBL5137101, “Application of Selective SMARCA2/4 PROTAC for Mutant Cancer Therapy” (ACS Med Chem Lett, 2022).

Common to all, as to format: cell-based
Experiment [1] has as its target von Hippel-Lindau disease tumor suppressor/SWI/SNF-related matrix-associated actin-dependent regulator of chromatin subfamily A member 2 (Homo sapiens) (UniProt P51531+P40337). In words: Protac activity at E3 ubiquitin-protein ligase/SMARCA2 in human VCaP cells assessed as SMARCA2 degradation at 100 nM incubated for 16 hrs by Western blot analysis relative to control. (In western blotting, separated proteins are transferred to a membrane and probed.)

Experiment [2] deals with von Hippel-Lindau disease tumor suppressor/SWI/SNF-related matrix-associated actin-dependent regulator of chromatin subfamily A member 4 (Homo sapiens) (UniProt P51532+P40337). In words: Protac activity at E3 ubiquitin-protein ligase/SMARCA4 in human VCaP cells assessed as SMARCA4 degradation at 100 nM incubated for 16 hrs by Western blot analysis relative to control.
Chain of von Hippel-Lindau disease tumor suppressor/SWI/SNF-related matrix-associated actin-dependent regulator of chromatin subfamily A member 4 (Homo sapiens) (P40337 whole entry, looked up): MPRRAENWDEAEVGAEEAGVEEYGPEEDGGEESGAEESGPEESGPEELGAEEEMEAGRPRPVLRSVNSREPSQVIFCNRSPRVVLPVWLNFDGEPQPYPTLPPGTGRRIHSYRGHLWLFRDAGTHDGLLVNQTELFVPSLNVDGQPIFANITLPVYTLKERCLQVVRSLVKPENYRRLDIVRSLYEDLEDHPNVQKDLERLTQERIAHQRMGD
Chain of von Hippel-Lindau disease tumor suppressor/SWI/SNF-related matrix-associated actin-dependent regulator of chromatin subfamily A member 4 (Homo sapiens) (P51532 whole entry, looked up): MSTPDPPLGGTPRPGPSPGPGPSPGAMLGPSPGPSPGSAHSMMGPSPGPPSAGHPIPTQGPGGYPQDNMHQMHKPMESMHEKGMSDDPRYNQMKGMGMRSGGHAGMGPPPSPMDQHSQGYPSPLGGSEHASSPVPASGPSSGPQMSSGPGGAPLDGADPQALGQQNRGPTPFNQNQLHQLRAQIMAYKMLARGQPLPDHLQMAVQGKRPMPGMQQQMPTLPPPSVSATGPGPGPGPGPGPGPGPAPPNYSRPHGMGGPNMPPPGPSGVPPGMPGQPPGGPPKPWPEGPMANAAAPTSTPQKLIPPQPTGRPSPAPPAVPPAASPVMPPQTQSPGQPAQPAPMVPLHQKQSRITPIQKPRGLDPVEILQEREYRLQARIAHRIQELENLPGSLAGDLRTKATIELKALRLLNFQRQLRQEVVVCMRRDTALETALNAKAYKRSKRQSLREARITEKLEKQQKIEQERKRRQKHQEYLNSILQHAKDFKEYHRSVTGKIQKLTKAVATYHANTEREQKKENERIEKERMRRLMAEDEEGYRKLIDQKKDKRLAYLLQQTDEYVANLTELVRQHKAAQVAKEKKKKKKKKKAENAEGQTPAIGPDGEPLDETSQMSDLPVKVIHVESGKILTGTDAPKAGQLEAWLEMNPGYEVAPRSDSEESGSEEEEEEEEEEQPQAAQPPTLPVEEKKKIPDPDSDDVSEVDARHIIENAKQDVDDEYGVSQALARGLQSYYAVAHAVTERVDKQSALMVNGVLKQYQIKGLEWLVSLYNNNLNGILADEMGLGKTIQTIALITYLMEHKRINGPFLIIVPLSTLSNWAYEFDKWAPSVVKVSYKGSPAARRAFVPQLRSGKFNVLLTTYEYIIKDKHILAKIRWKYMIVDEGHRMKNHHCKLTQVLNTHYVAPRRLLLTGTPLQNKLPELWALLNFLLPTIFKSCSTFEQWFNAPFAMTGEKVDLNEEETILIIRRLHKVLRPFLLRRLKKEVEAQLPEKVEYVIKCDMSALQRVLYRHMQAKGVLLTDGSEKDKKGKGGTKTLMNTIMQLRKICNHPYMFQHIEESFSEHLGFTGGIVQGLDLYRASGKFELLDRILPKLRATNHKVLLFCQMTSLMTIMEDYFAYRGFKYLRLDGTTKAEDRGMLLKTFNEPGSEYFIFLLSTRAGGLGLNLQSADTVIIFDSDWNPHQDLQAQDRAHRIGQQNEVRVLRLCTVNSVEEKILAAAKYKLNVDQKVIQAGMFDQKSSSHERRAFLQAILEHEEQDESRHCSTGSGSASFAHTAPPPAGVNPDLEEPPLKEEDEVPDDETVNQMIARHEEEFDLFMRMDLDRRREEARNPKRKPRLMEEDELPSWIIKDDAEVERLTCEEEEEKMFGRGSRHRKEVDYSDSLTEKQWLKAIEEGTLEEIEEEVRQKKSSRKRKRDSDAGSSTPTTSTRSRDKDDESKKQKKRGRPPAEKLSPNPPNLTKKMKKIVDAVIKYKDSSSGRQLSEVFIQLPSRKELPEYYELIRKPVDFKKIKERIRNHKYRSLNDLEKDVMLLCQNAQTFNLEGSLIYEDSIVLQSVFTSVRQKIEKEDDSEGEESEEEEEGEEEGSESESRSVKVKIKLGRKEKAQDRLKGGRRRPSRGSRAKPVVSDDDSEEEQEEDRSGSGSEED
The target of experiment [3] is von Hippel-Lindau disease tumor suppressor/SWI/SNF-related matrix-associated actin-dependent regulator of chromatin subfamily A member 2 (Homo sapiens, UniProt P40337+P51531). In words: Protac activity at E3 ubiquitin-protein ligase/SMARCA2 in human VCaP cells assessed as SMARCA2 degradation incubated for 16 hrs by Western blot analysis relative to control.
Chain of von Hippel-Lindau disease tumor suppressor/SWI/SNF-related matrix-associated actin-dependent regulator of chromatin subfamily A member 2 (P51531 whole entry): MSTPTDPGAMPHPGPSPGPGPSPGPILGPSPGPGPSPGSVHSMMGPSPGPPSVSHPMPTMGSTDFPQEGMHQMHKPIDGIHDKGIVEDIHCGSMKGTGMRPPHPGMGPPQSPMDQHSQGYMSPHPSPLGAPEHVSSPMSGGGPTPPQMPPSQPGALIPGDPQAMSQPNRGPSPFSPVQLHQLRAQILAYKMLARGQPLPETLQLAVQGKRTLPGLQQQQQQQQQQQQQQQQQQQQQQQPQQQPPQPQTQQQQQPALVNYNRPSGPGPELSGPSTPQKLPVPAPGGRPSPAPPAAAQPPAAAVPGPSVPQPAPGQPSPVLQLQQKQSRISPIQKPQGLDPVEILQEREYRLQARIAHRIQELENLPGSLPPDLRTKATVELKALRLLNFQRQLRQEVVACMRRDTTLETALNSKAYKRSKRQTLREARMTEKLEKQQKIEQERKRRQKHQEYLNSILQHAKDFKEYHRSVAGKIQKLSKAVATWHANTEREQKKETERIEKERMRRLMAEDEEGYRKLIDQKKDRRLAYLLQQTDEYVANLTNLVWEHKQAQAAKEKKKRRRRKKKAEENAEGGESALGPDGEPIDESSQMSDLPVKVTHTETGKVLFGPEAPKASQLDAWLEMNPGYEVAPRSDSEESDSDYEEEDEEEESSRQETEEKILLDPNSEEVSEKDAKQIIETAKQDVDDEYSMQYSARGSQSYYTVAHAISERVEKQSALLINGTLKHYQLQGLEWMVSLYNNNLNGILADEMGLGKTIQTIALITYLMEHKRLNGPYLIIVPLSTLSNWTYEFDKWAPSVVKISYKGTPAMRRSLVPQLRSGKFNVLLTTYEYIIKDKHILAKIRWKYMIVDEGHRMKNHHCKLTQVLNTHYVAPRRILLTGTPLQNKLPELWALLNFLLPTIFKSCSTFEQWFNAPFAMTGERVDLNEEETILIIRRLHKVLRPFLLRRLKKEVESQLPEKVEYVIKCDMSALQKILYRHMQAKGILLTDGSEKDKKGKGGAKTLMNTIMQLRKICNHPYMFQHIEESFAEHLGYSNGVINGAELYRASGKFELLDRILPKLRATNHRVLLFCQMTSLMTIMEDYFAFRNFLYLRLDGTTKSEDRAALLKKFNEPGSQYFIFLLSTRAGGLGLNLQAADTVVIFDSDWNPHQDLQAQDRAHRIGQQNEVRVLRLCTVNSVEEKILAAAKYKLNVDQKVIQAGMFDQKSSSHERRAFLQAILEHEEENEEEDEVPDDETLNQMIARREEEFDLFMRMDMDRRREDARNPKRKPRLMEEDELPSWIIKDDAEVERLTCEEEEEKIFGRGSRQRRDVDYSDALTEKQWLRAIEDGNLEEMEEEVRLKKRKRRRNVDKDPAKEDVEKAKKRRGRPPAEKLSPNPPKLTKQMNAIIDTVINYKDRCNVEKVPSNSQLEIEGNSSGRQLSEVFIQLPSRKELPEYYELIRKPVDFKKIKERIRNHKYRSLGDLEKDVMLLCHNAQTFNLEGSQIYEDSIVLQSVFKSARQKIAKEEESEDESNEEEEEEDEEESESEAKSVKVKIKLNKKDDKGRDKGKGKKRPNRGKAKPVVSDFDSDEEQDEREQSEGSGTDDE
Chain of von Hippel-Lindau disease tumor suppressor/SWI/SNF-related matrix-associated actin-dependent regulator of chromatin subfamily A member 2 (P40337 whole entry): as the sequence (P40337 whole entry, looked up) above
Experiment [4] addresses von Hippel-Lindau disease tumor suppressor/SWI/SNF-related matrix-associated actin-dependent regulator of chromatin subfamily A member 4 (Homo sapiens, UniProt P40337+P51532). In words: Protac activity at E3 ubiquitin-protein ligase/SMARCA4 in human VCaP cells assessed as SMARCA4 degradation incubated for 16 hrs by Western blot analysis relative to control.

Chain of von Hippel-Lindau disease tumor suppressor/SWI/SNF-related matrix-associated actin-dependent regulator of chromatin subfamily A member 4 (P51532 whole entry): as the sequence (P51532 whole entry, looked up) above
Chain of von Hippel-Lindau disease tumor suppressor/SWI/SNF-related matrix-associated actin-dependent regulator of chromatin subfamily A member 4 (P40337 whole entry): as the sequence (P40337 whole entry, looked up) above
Chain of von Hippel-Lindau disease tumor suppressor/SWI/SNF-related matrix-associated actin-dependent regulator of chromatin subfamily A member 2 (Homo sapiens) (P40337 whole entry, looked up): as above
Chain of von Hippel-Lindau disease tumor suppressor/SWI/SNF-related matrix-associated actin-dependent regulator of chromatin subfamily A member 2 (Homo sapiens) (P51531 whole entry, looked up): as the sequence (P51531 whole entry) above

In the case of `Cc1ncsc1-c1ccc([C@H](C)NC(=O)[C@@H]2C[C@@H](O)CN2C(=O)[C@@H](NC(=O)CN2CCN(c3ccc(-c4cnnc(-c5ccccc5O)c4)cc3)CC2)C(C)(C)C)cc1`, the Activity in experiment [1] came to 94%; in experiment [2], 0%. Moreover, the EC50 in experiment [3] and in experiment [4] was < 250 nM each time.
On to `Cc1ncsc1-c1ccc([C@H](C)NC(=O)[C@@H]2C[C@@H](O)CN2C(=O)[C@@H](NC(=O)CC2CCN(c3ccc(-c4cnnc(-c5ccccc5O)c4)cc3)CC2)C(C)(C)C)cc1`, for which the Activity in experiment [1] is 97%; in experiment [2], 40%. The EC50 in experiment [3] and in experiment [4] was < 250 nM in each case.
Consider `Cc1ncsc1-c1ccc([C@H](C)NC(=O)[C@@H]2C[C@@H](O)CN2C(=O)[C@@H](NC(=O)C2CCN(c3ccc(-c4cnnc(-c5ccccc5O)c4)cc3)CC2)C(C)(C)C)cc1`, for which the Activity was found to be 76% in experiment [1] and 0% in experiment [2].
For `Cc1ncsc1-c1ccc(CNC(=O)[C@@H]2C[C@@H](O)CN2C(=O)[C@@H](NC(=O)CN2CCC(c3ccc(-c4cnnc(-c5ccccc5O)c4)cc3)CC2)C(C)(C)C)cc1`, the Activity came out at 75% in experiment [1] and 0% in experiment [2].
`Cc1ncsc1-c1ccc([C@H](C)NC(=O)[C@@H]2C[C@@H](O)CN2C(=O)[C@@H](NC(=O)CN2CCC(c3ccc(-c4cnnc(-c5ccccc5O)c4)cc3)CC2)C(C)(C)C)cc1`: the Activity in experiment [1] amounted to 91%; in experiment [2], 0%. Besides, the EC50 in experiment [3] and in experiment [4] was < 250 nM throughout.
Take `Cc1ncsc1-c1ccc([C@H](C)NC(=O)[C@@H]2C[C@@H](O)CN2C(=O)[C@@H](NC(=O)CN2CCN(c3ccc(-c4cnnc(-c5ccccc5O)c4)cn3)CC2)C(C)(C)C)cc1`: the Activity is 94% in experiment [1] and 0% in experiment [2]. Besides, the EC50 in experiment [3] and in experiment [4] was < 250 nM each time.
